What was measured:
[1] = octanol and water, PubChem Compound; cited from earlier work
α4-eGFPβ2-wt nAChRs [2] = target: T1, α4-eGFPβ2-wt nAChRs (Mus musculus, UniProt O70174+Q9ERK7); assay type: cell-based
T1 construct: expressed in transfected cells; host or cells: mouse Neuro-2a cells
From the text: Details of the quantification method have been previously described (Srinivasan et al., 2011). Briefly, PM fluorescence was extracted as follows: Raw TIRF images were converted to background-subtracted images and the ER fluorescence was thresholded and selected. ER fluorescence was then subtracted from the original image to generate images with PM fluorescence signals. These procedures yielded a dataset of several hundred thousand pixel intensities over the 15-50 cells in each experimental group. Fluorescence intensities are simply the sum of pixel values for either the PM or the ER or the ER+PM (using whole TIRF footprint images). Mean PM fluorescence intensity was derived by dividing the total fluorescence intensity for each experimental group by the number of imaged cells and normalized to intensity of untreated cells. Ratios of fluorescence intensities for the whole TIRF footprint (ER+PM) to ER were used to determine the post-Golgi fraction of receptors. For PM integrated density measurements, rather than plotting SEMs (which would be indistinguishably small on the plots), we have used “error bars” to depict 99% confidence intervals based on a two-tailed t-test. Measurements from drug treated cells were normalized to values of untreated cells imaged on the same day. DHβE TIRF experiments were performed on a different day from nicotine and cytisine experiments.

α4-eGFPβ2-wt nAChRs [3] = target: T1, α4-eGFPβ2-wt nAChRs; assay type: cell-based; remark: listed apart in the source
Description: Neuro-2a cells were plated on 12 mm glass coverslips within 35 mm plastic bottom cell culture dishes. The following day, cells were transfected with 500 ng α4-eGFP and 500 ng β2-wt nAChR subunits. 24 to 48 hr later, glass coverslips were transferred to dishes on the microscope stage. Green fluorescence was visualized with an upright microscope (BX50WI, Olympus) and UV illumination with appropriate excitation filters. Agonist-induced currents were tested at a holding potential of −65 mV using a focal, relatively rapid drug application system designed to minimize desensitization (Xiao et al., 2009). We applied drugs from the lowest to highest concentration at 3 min intervals to minimize desensitization. Whole-cell patch-clamp recordings were with a MultiClamp 700B amplifier, a 1322 analog-to-digital converter, and pCLAMP 9.2 software (all from Axon Instruments, Molecular Devices). Data were sampled at 10 kHz and filtered at 2 kHz.
The intrapipette solution contained (in mM): 135 potassium gluconate, 5 KCl, 5 EGTA, 0.5 CaCl2, 10 HEPES, 2 Mg-ATP, and 0.1 GTP; the pH was adjusted to 7.2 with Tris base and the osmolarity to 300 mOsm with sucrose. The extracellular solution contained (in mM): 140 NaCl, 5 KCl, 2 CaCl2, 1 MgCl2, 10 HEPES, and 10 glucose; pH was adjusted to 7.3 with Tris base. The Nernst potential for Cl^− in the intrapipette solution is −82.9 mV. The bath was continuously perfused with extracellular solution (ECS) at room temperature (23±1° C.). The patch electrodes had resistances of 5 to 8 MΩ. The junction potential between the patch pipette and the bath solutions was nulled just before forming a gΩ seal. Series resistance was monitored and compensated by 70-80% throughout recordings. The data were ignored if the series resistance (15-30 MΩ) changed by >20% during the recording session.

Neuro-2a cells = assay type: cell-based, mouse
Description: Neuro-2a cells were transfected with α4-eGFP (500 ng)+β2wt (500 ng)+GaIT-mcherry (250 ng) or pDSred2-ER (100 ng) and cells were incubated for 48 h with appropriate concentrations of nicotine, cytisine or DHβE.
In ImageJ, background was subtracted, and DSred2-ER fluorescence was thresholded and demarcated for each cell.

α4β4 receptors = α4β4 receptors (Mus musculus, UniProt O70174+Q8R493); details: acute nicotine, 1 μM
Description: Additional experiments examined the effect of acute nicotine at a higher concentration (1 μM) on α4β4 receptors as well.

ATF6 = assay type: cell-based, mouse
Description: Mouse Neuro-2a cells were cultured using standard tissue culture techniques and maintained in 45% DMEM, 45% OptiMEM and 10% FBS. Plasmid concentrations used for transfection were as follows: 500 ng of each nAChR subunit, 75 ng of pCS2-mcherry, 250 ng of Sec24D constructs, 100 ng of pDsRed2-ER, 250 ng of GaIT-eCFP and 500 ng of ATF6-eGFP. 90,000 cells were plated in poly-D-lysine coated 35 mm MatTek glass bottom imaging dishes. The following day, plasmid DNA was mixed with cationic lipids by adding appropriate DNA concentrations to 4 μl of Expressfect transfection reagent in 200 μl DMEM final volume and incubated for 20 min at room temperature to form cationic lipid-DNA complexes. DMEM+DNA-lipid complexes were added to Neuro-2a cells in 1 ml of DMEM+10% FBS and incubated at 37° C. for 4 h. Dishes were rinsed 2× with DMEM, then filled with 3 ml of DMEM+10% FBS and incubated at 37° C. for 48 h. Nicotine, cytisine or DHβE was added at appropriate concentrations during the change of medium following 4 h incubation with Expressfect-plasmid DNA complexes.

α4β2 nAChRs = α4β2 nAChRs (Mus musculus, UniProt O70174+Q9ERK7)
Sequence of α4β2 nAChRs (O70174 31-629): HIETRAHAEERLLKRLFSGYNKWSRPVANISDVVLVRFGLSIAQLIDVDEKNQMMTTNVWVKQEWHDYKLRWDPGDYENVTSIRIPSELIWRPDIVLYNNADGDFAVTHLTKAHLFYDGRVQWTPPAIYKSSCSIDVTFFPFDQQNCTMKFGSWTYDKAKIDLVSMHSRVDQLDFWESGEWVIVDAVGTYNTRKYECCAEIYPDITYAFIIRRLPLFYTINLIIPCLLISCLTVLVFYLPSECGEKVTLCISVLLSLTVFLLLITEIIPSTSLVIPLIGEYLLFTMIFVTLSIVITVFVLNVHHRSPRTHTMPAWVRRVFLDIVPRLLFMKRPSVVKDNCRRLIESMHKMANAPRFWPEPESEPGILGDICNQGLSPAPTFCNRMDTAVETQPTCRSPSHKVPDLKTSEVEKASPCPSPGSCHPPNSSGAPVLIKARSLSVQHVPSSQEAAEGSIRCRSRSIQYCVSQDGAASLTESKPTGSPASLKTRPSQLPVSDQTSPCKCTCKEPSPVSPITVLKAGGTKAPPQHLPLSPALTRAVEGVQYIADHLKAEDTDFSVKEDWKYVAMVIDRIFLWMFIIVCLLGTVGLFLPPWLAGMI
Sequence of α4β2 nAChRs (Q9ERK7 26-501): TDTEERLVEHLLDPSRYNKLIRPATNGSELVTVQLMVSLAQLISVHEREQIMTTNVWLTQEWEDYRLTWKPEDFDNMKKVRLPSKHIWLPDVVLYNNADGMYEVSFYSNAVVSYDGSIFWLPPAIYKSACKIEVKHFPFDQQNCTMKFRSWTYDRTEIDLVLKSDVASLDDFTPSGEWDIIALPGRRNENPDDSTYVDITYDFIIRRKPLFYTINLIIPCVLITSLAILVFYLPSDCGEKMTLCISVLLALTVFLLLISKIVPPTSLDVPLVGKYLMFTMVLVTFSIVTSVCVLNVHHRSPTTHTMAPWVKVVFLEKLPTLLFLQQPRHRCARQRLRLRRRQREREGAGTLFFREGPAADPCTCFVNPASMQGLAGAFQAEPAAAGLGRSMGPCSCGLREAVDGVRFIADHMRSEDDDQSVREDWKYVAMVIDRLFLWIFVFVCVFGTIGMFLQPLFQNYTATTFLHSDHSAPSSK
From the text: For NFRET experiments, Neuro-2a cells were transfected with GaIT-eCFP+α4-mcherry+β2-eGFP subunits. GaIT-eCFP was used to label the TG, TGN (Schaub et al., 2006). Cells transfected with α4-mcherryβ2wt or α4wtβ2-eGFP nAChRs were included in every imaging session to control for pixel saturation and spectral bleedthrough. Live cells were imaged using an Eclipse C1si laser scanning confocal microscope. During image acquisition, cells were focused to a plane where the GaIT-eCFP fluorescence was best visualized. Images with emission spectra for eCFP, eGFP and mcherry were acquired in 5-nm bins between 470 and 620 nm. 439, 488 and 561 nm laser lines were used to excite eCFP, eGFP and mcherry respectively. Images were linearly unmixed using reference spectra for eCFP, eGFP and mcherry with emission maxima at 477, 508 and 608 nm. Reference spectra were acquired from Neuro-2a cells transfected with either GaIT-eCFP or α4-mcherryβ2wt or α4wtβ2-eGFP during the same imaging session. Linear unmixing was used to separate all three emission spectra from each image. Linearly unmixed images were compiled into donor spectral bleed-through stacks, acceptor spectral bleed-through stacks, and sample image stacks.
The PixFRET ImageJ plugin was used to determine the eGFP and mcherry spectral bleedthrough (BT) values and to calculate the net FRET (nF) (equation 1) and normalized FRET (NFRET) at each pixel. With the background and bleed-through corrections set, the nF for each pixel as described by equation 1 was calculated and the data were presented as 32-bit images. nF was divided by the square root of eGFP and mcherry intensities (equation 2) to obtain the normalized FRET (NFRET) value at each pixel. FRET normalization was used to control for large differences in fluorophore expression within subcellular regions and between different cells in a dish.
where, nF=net FRET, IFRET=mcherry sensitized emission with 488 nm excitation, IeGFP=eGFP emission with 488 nm excitation, BTeGFP=spectral bleedthrough of eGFP emission into mcherry emission spectra at 488 nm excitation, Imcherry=mcherry emission with 561 nm excitation and BTmcherry=spectral bleedthrough of mcherry emission into eGFP emission spectra at 561 nm excitation. IFRET, IeGFP and Imcherry were obtained from Neuro-2a cells transfected with GaIT-eCFP+α4-mcherry+β2-eGFP. BTeGFP and BTmcherry values were obtained from Neuro-2a cells transfected with α4-mcherry+β2wt and α4wt+β2-eGFP respectively.
Histograms of NFRET (x-axis) versus number of pixels (y-axis) of each imaged cell were compiled for either the whole cell sections or the TG, TGN ROIs, demarcated by intensity-based thresholding of GaIT-eCFP fluorescence. Frequency histograms obtained in this way (omitting values of zero) were merged for all cells in each experimental group and fitted to two Gaussian components such that a minimum goodness of fit (R^2) value of 0.995 was achieved. Ratios of area under the curve for the two Gaussian components with high and low mean NFRET values were used to determine changes in receptor stoichiometry between experimental groups: NFRET histograms were fitted to Gaussian components, yielding the total pixel area under either the A1 (low mean NFRET fit) or A2 (high mean NFRET fit) components. For quantitative measurements of stoichiometry, we compared the fractional area (FA) for the low NFRET component in each case as given by the following equation:
where, FA=fractional area, A1=area under the curve for low mean NFRET Gaussian component and A2=area under the curve for high mean NFRET Gaussian component.
Due to variability resulting from cell passage number, we imaged untreated control cells on the same day to compare and evaluate the effects of drug exposure on stoichiometry.

T1 sequence (O70174 31-629): as the sequence (O70174 31-629) above
T1 sequence (Q9ERK7 26-501): as the sequence (Q9ERK7 26-501) above
Sequence of α4β4 receptors (O70174 31-629): as the sequence (O70174 31-629) above
Sequence of α4β4 receptors (Q8R493 21-495): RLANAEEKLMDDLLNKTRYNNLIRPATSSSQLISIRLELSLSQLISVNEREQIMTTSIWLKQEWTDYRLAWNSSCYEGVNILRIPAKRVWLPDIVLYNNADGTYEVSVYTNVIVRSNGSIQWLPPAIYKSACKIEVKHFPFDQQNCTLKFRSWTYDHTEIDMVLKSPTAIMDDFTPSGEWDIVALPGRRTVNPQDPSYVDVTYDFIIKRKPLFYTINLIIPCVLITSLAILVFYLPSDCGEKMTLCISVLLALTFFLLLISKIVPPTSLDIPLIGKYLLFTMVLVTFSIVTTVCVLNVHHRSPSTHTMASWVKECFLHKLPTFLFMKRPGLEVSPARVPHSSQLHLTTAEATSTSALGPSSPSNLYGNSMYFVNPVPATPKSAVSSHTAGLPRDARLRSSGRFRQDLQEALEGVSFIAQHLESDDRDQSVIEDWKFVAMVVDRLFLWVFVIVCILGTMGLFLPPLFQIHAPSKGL

For CN1CCCC1c1cccnc1 (stereo not drawn) [Nicotine, nicotine], the logP [1] is listed as 1.1, the “effect on the footprint/ER ratio (in words)” value (α4-eGFPβ2-wt nAChRs [2]) is listed as “reduction” and the “increase in PM-localized nAChRs” value (α4-eGFPβ2-wt nAChRs [2]) is listed as 2 fold. The “reduction of the footprint/ER ratio” value (α4-eGFPβ2-wt nAChRs [2]) was roughly 2 fold, the “evoked currents as % of maximum currents induced by 500 μM nicotine” value (α4-eGFPβ2-wt nAChRs [3]) was 0.44±0.07% and the “fraction of the total receptor population activated” value (α4-eGFPβ2-wt nAChRs [3]) was 0.4%. The “effect on peripheral ER area (in words)” value (Neuro-2a cells) was “increased”, the “increase in the average ER area” value (Neuro-2a cells) was 1.7 fold and the “Fnic/F0 (SEP fluorescence, receptors in the membrane)” value (α4β4 receptors) was 65%+/−0.03. The “reduction in the ratio of nuclear to whole cell ATF6-eGFP fluorescence” value (ATF6) was roughly 25%, the “TG+TGN FA (fractional area of low NFRET component)” value (α4β2 nAChRs) was 0.80 and the “whole cell FA (fractional area of low NFRET component)” value (α4β2 nAChRs) was 0.74.
